Laboratory results: patent US20120021434A1, “METHOD FOR TREATING B CELL REGULATED AUTOIMMUNE DISORDERS” (Synta Pharmaceuticals Corp., priority 2005, published 2012)

Key:
[1] = test system: purified mouse splenic (CD19+) B cells; assay: Primary mouse B cell survival, Annexin V/propidium iodide flow cytometry; type: cell-based; conditions: 24 h; for viability at 0.0001 µM / viability at 0.001 µM / viability at 0.01 µM / viability at 0.1 µM / viability at 1 µM: Mus musculus, B-cell
Experimental: Therefore, the effect of Compound 50 on the activation and survival of homogeneous populations of primary B and T lymphocytes has been explored. As a first step in this process, we evaluated the effect of Compound 50 on the survival of purified mouse splenic (CD19^+) B cells. When cultured ex vivo, primary B cells undergo spontaneous apoptosis within 24-48 h in the absence of any survival signals. Examples of such stimuli include those mediated by anti-CD40 (or CD40L), BAFF, or B cell receptor signals provided by either anti-IgM or LPS. Murine primary B cells were isolated from mouse spleen using anti-CD19 coated magnetic beads (Miltenyi Biotec) according to the manufacturer's recommendations. Purified CD19^+ B cells were cultured at 100,000 cells/well in 96-well microtiter plates in culture medium (RPMI 1640 supplemented with 10% fetal bovine serum, 2 mM L-glutamine, 1 mM sodium pyruvate, 20 mM HEPES, and 55 μM β-mercaptoethanol) in the presence of 10 μg/ml anti-CD40, 5 μg/ml LPS or 100 ng/ml BAFF in the presence or absence of Compound 50 for 24 h and measured the frequency of viable and apoptotic cells using Annexin V/propidum iodide flow cytometric analysis. To perform this analysis, cells were washed with PBS and labeled with Annexin V-FITC and propidium iodide (BioVision) according to the manufacturer's instructions. Apoptotic cell (Annexin V-positive) and live cell (Annexin V-negative/propidium iodide-negative) percentages were determined using a flow cytometer.

[2] = test system: IL-12 promoter (p40 expression); assay: IL-12 promoter-Luc reporter with ICSBP over-expression; type: cell-based; conditions: co-transfection of ICSBP construct with IL-12 promoter-Luc reporter
From the text: ICSBP, whose expression was reduced by Compound 50, was over-expressed using co-transfection with the IL-12 promoter-Luc report system. The over-expression construct of ICSBP was generated by PCR from cDNA of human PBMC using primers as follow: ICSBP-exp-F: 5′-[…]-3′ (SEQ ID NO:1) and ICSBP-exp-R: 5′-[…]-3′ (SEQ ID NO:2), the resulting PCR products was ligated to pCI vector (Promega).

SMILES: Cc1cccc(/C=N/Nc2cc(N3CCOCC3)nc(OCCc3ccccn3)n2)c1 [Compound 50, N-(3-Methyl-benzylidene)-N′-[6-morpholin-4-yl-2-(2-pyridin-2-yl-ethoxy)-pyrimidin-4-yl]-hydrazine]
- % Apoptotic ([1]; Anti-CD40 (10 μg/ml), 0.1 nM): 39%
- % Apoptotic ([1]; Anti-CD40 (10 μg/ml), 1 nM): 37%
- % Apoptotic ([1]; Anti-CD40 (10 μg/ml), 10 nM): 46%
- % Apoptotic ([1]; Anti-CD40 (10 μg/ml), 100 nM): 89%
- % Apoptotic ([1]; Anti-CD40 (10 μg/ml), 1000 nM): 90%
- % Apoptotic ([1]; BAFF (100 ng/ml), 0.1 nM): 40%
- % Apoptotic ([1]; BAFF (100 ng/ml), 1 nM): 43%
- % Apoptotic ([1]; BAFF (100 ng/ml), 10 nM): 52%
- % Apoptotic ([1]; BAFF (100 ng/ml), 100 nM): 92%
- % Apoptotic ([1]; BAFF (100 ng/ml), 1000 nM): 93%
- % Apoptotic ([1]; LPS (5 μg/ml), 0.1 nM): 31%
- % Apoptotic ([1]; LPS (5 μg/ml), 1 nM): 32%
- % Apoptotic ([1]; LPS (5 μg/ml), 10 nM): 44%
- % Apoptotic ([1]; LPS (5 μg/ml), 100 nM): 79%
- % Apoptotic ([1]; LPS (5 μg/ml), 1000 nM): 79%
- viability at 0.0001 µM ([1]; Anti-CD40 (10 μg/ml), 0.1 nM): 55%
- viability at 0.001 µM ([1]; Anti-CD40 (10 μg/ml), 1 nM): 51%
- viability at 0.01 µM ([1]; Anti-CD40 (10 μg/ml), 10 nM): 48%
- viability at 0.1 µM ([1]; Anti-CD40 (10 μg/ml), 100 nM): 5%
- viability at 1 µM ([1]; Anti-CD40 (10 μg/ml), 1000 nM): 3%
- viability at 0.0001 µM ([1]; BAFF (100 ng/ml), 0.1 nM): 55%
- viability at 0.001 µM ([1]; BAFF (100 ng/ml), 1 nM): 52%
- viability at 0.01 µM ([1]; BAFF (100 ng/ml), 10 nM): 43%
- viability at 0.1 µM ([1]; BAFF (100 ng/ml), 100 nM): 4%
- viability at 1 µM ([1]; BAFF (100 ng/ml), 1000 nM): 3%
- viability at 0.0001 µM ([1]; LPS (5 μg/ml), 0.1 nM): 63%
- viability at 0.001 µM ([1]; LPS (5 μg/ml), 1 nM): 63%
- viability at 0.01 µM ([1]; LPS (5 μg/ml), 10 nM): 51%
- viability at 0.1 µM ([1]; LPS (5 μg/ml), 100 nM): 15%
- viability at 1 µM ([1]; LPS (5 μg/ml), 1000 nM): 13%
- B cells apoptotic ([1]; concentrations 100 nM, with anti-CD40, LPS or BAFF): 80-90%
- inhibition of p40 expression under ICSBP over-expression [2]: decreased the inhibition
